Assay results taken from patent publication US6358885B1, “Substituted phenylheterocyclic herbicides” (Mississippi State University, priority 1992, dated 2002).

Columns and labels:
sugar beet = experiment: Test B preemergence/postemergence greenhouse plant response rating 0 to 10; assay type: in vivo, Beta vulgaris; conditions: 0 to 10 scale
In short: (§1)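 Test chemicals, dissolved in a non-phytotoxic solvent, were applied to soil at planting and, at the same time, over foliage of seedlings at the one to four leaf stage.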

chickweed = experiment: as above; assay type: in vivo, Stellaria media; conditions: 0 to 10 scale
In short: as §1

morningglory [1] = experiment: Test C preemergence/postemergence greenhouse plant response rating 0 to 100; assay type: in vivo, Ipomoea hederacea; conditions: for Plant response rating, Morningglory: 0 to 100 scale
In short: (§2)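 Compounds in non-phytotoxic solvent applied preemergence to sandy loam one day after planting, postemergence at the 1–4 leaf stage, or to ~2.5 cm floodwater over silt loam.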

velvetleaf [2] = experiment: as above; assay type: in vivo, Abutilon theophrasti; conditions: for Plant response rating, Velvetleaf: 0 to 100 scale
In short: as §2

wheat = experiment: as above; assay type: in vivo, Triticum aestivum; conditions: for Plant response rating, Wheat: 0 to 100 scale
In short: as §2

soybean = experiment: Test B preemergence/postemergence greenhouse plant response rating 0 to 10; assay type: in vivo, Glycine max; conditions: 0 to 10 scale
In short: as §1

corn [3] = experiment: as above; assay type: in vivo, Zea mays; conditions: 0 to 10 scale
In short: as §1

crabgrass = experiment: Test C preemergence/postemergence greenhouse plant response rating 0 to 100; assay type: in vivo, Digitaria sanguinalis; conditions: for Plant response rating, Crabgrass: 0 to 100 scale
In short: as §2

lambsquarters = experiment: as above; assay type: in vivo, Chenopodium album; conditions: for Plant response rating Lambsquarters: 0 to 100 scale
In short: as §2

morningglory [4] = experiment: Test B preemergence/postemergence greenhouse plant response rating 0 to 10; assay type: in vivo, Ipomoea hederacea; conditions: 0 to 10 scale
In short: as §1

corn [5] = experiment: Test C preemergence/postemergence greenhouse plant response rating 0 to 100; assay type: in vivo, Zea mays; conditions: for Plant response rating, Corn: 0 to 100 scale
In short: as §2

velvetleaf [6] = experiment: Test B preemergence/postemergence greenhouse plant response rating 0 to 10; assay type: in vivo, Abutilon theophrasti; conditions: 0 to 10 scale
In short: as §1

Compound: CCN1C(=O)COc2cc(F)c(-c3nn4c(c3Cl)CCCC4)cc21 [Compound 54]
- Plant response rating, Sugar beet (sugar beet; POSTEMERGENCE, Rate 10 g/ha): 10
- Plant response rating, Sugar beet (sugar beet; POSTEMERGENCE, Rate 50 g/ha): 10
- Plant response rating, Sugar beet (sugar beet; PREEMERGENCE, Rate 50 g/ha): 9
- Plant response rating, Chickweed (chickweed; POSTEMERGENCE, Rate 50 g/ha): 10
- Plant response rating, Chickweed (chickweed; PREEMERGENCE, Rate 10 g/ha): 9
- Plant response rating, Chickweed (chickweed; PREEMERGENCE, Rate 50 g/ha): 10
- Plant response rating, Morningglory (morningglory [1]; POSTEMERGENCE, 62 g/ha): 100
- Plant response rating (0 to 100), Morningglory (morningglory [1]; POSTEMERGENCE, Rate 1 g/ha): 60
- Plant response rating (0 to 100), Morningglory (morningglory [1]; POSTEMERGENCE, Rate 4 g/ha): 100
- Plant response rating, Morningglory (morningglory [1]; PREEMERGENCE, 62 g/ha): 20
- Plant response rating (0 to 100), Morningglory (morningglory [1]; PREEMERGENCE, Rate 1 g/ha): 0
- Plant response rating (0 to 100), Morningglory (morningglory [1]; PREEMERGENCE, Rate 4 g/ha): 0
- Plant response rating (0 to 100), Morningglory (morningglory [1]; Rate 16 g/ha, POSTEMERGENCE): 100
- Plant response rating (0 to 100), Morningglory (morningglory [1]; Rate 16 g/ha, PREEMERGENCE): 0
- Plant response rating, Velvetleaf (velvetleaf [2]; POSTEMERGENCE, 62 g/ha): 100
- Plant response rating (0 to 100), Velvetleaf (velvetleaf [2]; POSTEMERGENCE, Rate 1 g/ha): 70
- Plant response rating (0 to 100), Velvetleaf (velvetleaf [2]; POSTEMERGENCE, Rate 4 g/ha): 100
- Plant response rating (0 to 100), Velvetleaf (velvetleaf [2]; PREEMERGENCE, Rate 1 g/ha): 0
- Plant response rating (0 to 100), Velvetleaf (velvetleaf [2]; PREEMERGENCE, Rate 4 g/ha): 0
- Plant response rating (0 to 100), Velvetleaf (velvetleaf [2]; Rate 16 g/ha, POSTEMERGENCE): 100
- Plant response rating (0 to 100), Velvetleaf (velvetleaf [2]; Rate 16 g/ha, PREEMERGENCE): 80
- Plant response rating, Wheat (wheat; POSTEMERGENCE, 62 g/ha): 60
- Plant response rating (0 to 100), Wheat (wheat; POSTEMERGENCE, Rate 1 g/ha): 20
- Plant response rating (0 to 100), Wheat (wheat; POSTEMERGENCE, Rate 4 g/ha): 40
- Plant response rating (0 to 100), Wheat (wheat; PREEMERGENCE, Rate 1 g/ha): 0
- Plant response rating (0 to 100), Wheat (wheat; PREEMERGENCE, Rate 4 g/ha): 0
- Plant response rating (0 to 100), Wheat (wheat; Rate 16 g/ha, POSTEMERGENCE): 60
- Plant response rating (0 to 100), Wheat (wheat; Rate 16 g/ha, PREEMERGENCE): 10
- Plant response rating, Soybean (soybean; POSTEMERGENCE, Rate 10 g/ha): 8
- Plant response rating, Soybean (soybean; POSTEMERGENCE, Rate 50 g/ha): 9
- Plant response rating, Soybean (soybean; PREEMERGENCE, Rate 50 g/ha): 0
- Plant response rating, Corn (corn [3]; POSTEMERGENCE, Rate 10 g/ha): 3
- Plant response rating, Corn (corn [3]; POSTEMERGENCE, Rate 50 g/ha): 3
- Plant response rating, Corn (corn [3]; PREEMERGENCE, Rate 50 g/ha): 0
- Plant response rating, Crabgrass (crabgrass; POSTEMERGENCE, 62 g/ha): 50
- Plant response rating (0 to 100), Crabgrass (crabgrass; POSTEMERGENCE, Rate 1 g/ha): 10
- Plant response rating (0 to 100), Crabgrass (crabgrass; POSTEMERGENCE, Rate 4 g/ha): 20
- Plant response rating, Crabgrass (crabgrass; PREEMERGENCE, 62 g/ha): 50
- Plant response rating (0 to 100), Crabgrass (crabgrass; PREEMERGENCE, Rate 1 g/ha): 0
- Plant response rating (0 to 100), Crabgrass (crabgrass; PREEMERGENCE, Rate 4 g/ha): 0
- Plant response rating (0 to 100), Crabgrass (crabgrass; Rate 16 g/ha, POSTEMERGENCE): 30
- Plant response rating (0 to 100), Crabgrass (crabgrass; Rate 16 g/ha, PREEMERGENCE): 0
- Plant response rating Lambsquarters (lambsquarters; POSTEMERGENCE, 62 g/ha): 100
- Plant response rating (0 to 100), Lambsquarters (lambsquarters; POSTEMERGENCE, Rate 1 g/ha): 10
- Plant response rating (0 to 100), Lambsquarters (lambsquarters; POSTEMERGENCE, Rate 4 g/ha): 50
- Plant response rating Lambsquarters (lambsquarters; PREEMERGENCE, 62 g/ha): 100
- Plant response rating (0 to 100), Lambsquarters (lambsquarters; PREEMERGENCE, Rate 1 g/ha): 0
- Plant response rating (0 to 100), Lambsquarters (lambsquarters; PREEMERGENCE, Rate 4 g/ha): 60
- Plant response rating (0 to 100), Lambsquarters (lambsquarters; Rate 16 g/ha, POSTEMERGENCE): 75
- Plant response rating (0 to 100), Lambsquarters (lambsquarters; Rate 16 g/ha, PREEMERGENCE): 100
- Plant response rating, Morningglory (morningglory [4]; POSTEMERGENCE, Rate 10 g/ha): 9
- Plant response rating, Morningglory (morningglory [4]; POSTEMERGENCE, Rate 50 g/ha): 9
- Plant response rating, Morningglory (morningglory [4]; PREEMERGENCE, Rate 50 g/ha): 3
- Plant response rating, Corn (corn [5]; POSTEMERGENCE, 62 g/ha): 50
- Plant response rating (0 to 100), Corn (corn [5]; POSTEMERGENCE, Rate 1 g/ha): 30
- Plant response rating (0 to 100), Corn (corn [5]; POSTEMERGENCE, Rate 4 g/ha): 30
- Plant response rating, Corn (corn [5]; PREEMERGENCE, 62 g/ha): 40
- Plant response rating (0 to 100), Corn (corn [5]; PREEMERGENCE, Rate 1 g/ha): 0
- Plant response rating (0 to 100), Corn (corn [5]; PREEMERGENCE, Rate 4 g/ha): 0
- Plant response rating (0 to 100), Corn (corn [5]; Rate 16 g/ha, POSTEMERGENCE): 40
- Plant response rating (0 to 100), Corn (corn [5]; Rate 16 g/ha, PREEMERGENCE): 0
- Plant response rating, Velvetleaf (velvetleaf [6]; POSTEMERGENCE, Rate 10 g/ha): 8
- Plant response rating, Velvetleaf (velvetleaf [6]; POSTEMERGENCE, Rate 50 g/ha): 9
- Plant response rating, Velvetleaf (velvetleaf [6]; PREEMERGENCE, Rate 50 g/ha): 10

Compound: CC(C)OC(=O)COc1cc(-c2nn3c(c2Cl)CCCC3)c(F)cc1Cl [Compound 39]
- Plant response rating, Sugar beet (sugar beet; POSTEMERGENCE, Rate 50 g/ha): 10
- Plant response rating, Sugar beet (sugar beet; PREEMERGENCE, Rate 50 g/ha): 8
- Plant response rating, Sugar beet (sugar beet; Rate 200 g/ha, POSTEMERGENCE): 10
- Plant response rating, Sugar beet (sugar beet; Rate 200 g/ha, PREEMERGENCE): 10
- Plant response rating, Chickweed (chickweed; POSTEMERGENCE, Rate 50 g/ha): 8
- Plant response rating, Chickweed (chickweed; POSTEMERGENCE, Rate 200 g/ha): 10
- Plant response rating, Chickweed (chickweed; PREEMERGENCE, Rate 50 g/ha): 0
- Plant response rating, Chickweed (chickweed; Rate 200 g/ha, PREEMERGENCE): 5
- Plant response rating, Morningglory (morningglory [1]; POSTEMERGENCE, 62 g/ha): 100
- Plant response rating, Morningglory (morningglory [1]; POSTEMERGENCE, 125 g/ha): 100
- Plant response rating (0 to 100), Morningglory (morningglory [1]; Rate 16 g/ha, POSTEMERGENCE): 60
- Plant response rating (0 to 100), Morningglory (morningglory [1]; Rate 31 g/ha, POSTEMERGENCE): 100
- Plant response rating, Velvetleaf (velvetleaf [2]; POSTEMERGENCE, 62 g/ha): 100
- Plant response rating, Velvetleaf (velvetleaf [2]; POSTEMERGENCE, 125 g/ha): 100
- Plant response rating (0 to 100), Velvetleaf (velvetleaf [2]; Rate 16 g/ha, POSTEMERGENCE): 100
- Plant response rating (0 to 100), Velvetleaf (velvetleaf [2]; Rate 31 g/ha, POSTEMERGENCE): 100
- Plant response rating, Wheat (wheat; POSTEMERGENCE, 62 g/ha): 10
- Plant response rating, Wheat (wheat; POSTEMERGENCE, 125 g/ha): 20
- Plant response rating (0 to 100), Wheat (wheat; Rate 16 g/ha, POSTEMERGENCE): 10
- Plant response rating (0 to 100), Wheat (wheat; Rate 31 g/ha, POSTEMERGENCE): 10
- Plant response rating, Soybean (soybean; POSTEMERGENCE, Rate 50 g/ha): 2
- Plant response rating, Soybean (soybean; PREEMERGENCE, Rate 50 g/ha): 0
- Plant response rating, Soybean (soybean; Rate 200 g/ha, POSTEMERGENCE): 4
- Plant response rating, Soybean (soybean; Rate 200 g/ha, PREEMERGENCE): 0
- Plant response rating, Corn (corn [3]; POSTEMERGENCE, Rate 50 g/ha): 5
- Plant response rating, Corn (corn [3]; POSTEMERGENCE, Rate 200 g/ha): 5
- Plant response rating, Corn (corn [3]; PREEMERGENCE, Rate 50 g/ha): 0
- Plant response rating, Corn (corn [3]; Rate 200 g/ha, PREEMERGENCE): 0
- Plant response rating, Crabgrass (crabgrass; POSTEMERGENCE, 62 g/ha): 20
- Plant response rating, Crabgrass (crabgrass; POSTEMERGENCE, 125 g/ha): 30
- Plant response rating (0 to 100), Crabgrass (crabgrass; Rate 16 g/ha, POSTEMERGENCE): 10
- Plant response rating (0 to 100), Crabgrass (crabgrass; Rate 31 g/ha, POSTEMERGENCE): 10
- Plant response rating Lambsquarters (lambsquarters; POSTEMERGENCE, 62 g/ha): 100
- Plant response rating Lambsquarters (lambsquarters; POSTEMERGENCE, 125 g/ha): 100
- Plant response rating (0 to 100), Lambsquarters (lambsquarters; Rate 16 g/ha, POSTEMERGENCE): 70
- Plant response rating (0 to 100), Lambsquarters (lambsquarters; Rate 31 g/ha, POSTEMERGENCE): 100
- Plant response rating, Morningglory (morningglory [4]; POSTEMERGENCE, Rate 50 g/ha): 8
- Plant response rating, Morningglory (morningglory [4]; PREEMERGENCE, Rate 50 g/ha): 0
- Plant response rating, Morningglory (morningglory [4]; Rate 200 g/ha, POSTEMERGENCE): 9
- Plant response rating, Morningglory (morningglory [4]; Rate 200 g/ha, PREEMERGENCE): 2
- Plant response rating, Corn (corn [5]; POSTEMERGENCE, 62 g/ha): 30
- Plant response rating, Corn (corn [5]; POSTEMERGENCE, 125 g/ha): 30
- Plant response rating (0 to 100), Corn (corn [5]; Rate 16 g/ha, POSTEMERGENCE): 20
- Plant response rating (0 to 100), Corn (corn [5]; Rate 31 g/ha, POSTEMERGENCE): 30
- Plant response rating, Velvetleaf (velvetleaf [6]; POSTEMERGENCE, Rate 50 g/ha): 9
- Plant response rating, Velvetleaf (velvetleaf [6]; PREEMERGENCE, Rate 50 g/ha): 2
- Plant response rating, Velvetleaf (velvetleaf [6]; Rate 200 g/ha, POSTEMERGENCE): 10
- Plant response rating, Velvetleaf (velvetleaf [6]; Rate 200 g/ha, PREEMERGENCE): 4
